Test results: patent US9963701B2, “Pharmaceutical composition for treatment of radiation- or drug-resistant cancer comprising HRP-3 inhibitor” (KOREA INSTITUTE OF RADIOLOGICAL & MEDICAL SCIENCES, priority 2013, dated 2018)
“Also recorded” adds a separate entry of the source.

Key:
Assay type in all cases: cell-based, human
ROS [1] = assay: ROS production by FACS analysis using DCF-DA in A549 cells; details: 1 mM NAC, 48 hours
Protocol: Thus, it was predicted that HRP-3 would influence ROS production, and the following experiment was performed in order to confirm this prediction. […] The level of ROS produced in the cells was determined by FACS analysis using 10 nM DCF-DA (FIG. 4C).
Further, A549 cells were transfected with 100 nM scrambled siRNA or HRP-3 siRNA without or with exposure to 10 Gy radiation and cultured, and the level of ROS produced in the cells was assessed by FACS analysis using 10 nM DCF-DA (FIG. 4D).

[2] = system: p53, pp53, PUMA, cleaved PARP; assay: Western blot of cleaved PARP, p53, pp53, PUMA in A549 cells; details: siHRP-3-transfected A549 cells, 1 mM NAC
Description: Additionally, the effect of p53 on the induction of apoptosis was examined. […] Next, the levels of HRP-3, cleaved PARP, p53, pp53, and PUMA proteins produced in the cells were detected by Western blot analysis (FIG. 5D).

ROS [3] = assay: ROS production by DCF-DA (confocal, FACS) in H1299 cells; details: 3 mM NAC
Protocol: According to a known method, the thus obtained H1299 cells were treated with 10 nM DCF-DA (2′,7′-dichlorofluorescein diacetate) for 20 minutes, and the produced ROS was detected (M. J. Kim, et al., Cancer Lett, 339:15-24, 2013) (FIG. 8D). The detection of ROS was performed by observing the DCF-DA-stained cells with a laser scanning confocal microscope and analyzing the DCF-DA-stained cells by FACS analysis to determine the production of ROS.

IκB, c-Myc, Noxa = assay: Western blot of IκB, c-Myc, Noxa in H1299 cells; details: siHRP-3-treated H1299 cells
Protocol: Specifically, a cell lysate obtained by lysing the scrambled siRNA- or siHRP-3-treated H1299 cells cultured in Example 6-2 was analyzed by Western blot using anti-HRP-3 antibodies, anti-IκB antibodies (Santa Cruz Biotechnology Inc., Santa Cruz, Calif., USA), anti-c-Myc antibodies (Calbiochem, San Diego, Calif., USA) and anti-Noxa antibodies (Calbiochem, San Diego, Calif., USA). Herein, β-actin was used as a loading control (FIG. 9A; left). As control cells, H1299 cells were treated with scrambled siRNA alone.
H1299 cells subjected to the inhibition of HRP-3 expression and radiation were obtained in the same manner as described in Example 6-4, except that radiation alone, was performed as anticancer treatment. The thus obtained H1299 cells were lysed to obtain a cell lysate. The expression levels of IκB, c-Myc and Noxa were measured in the same manner as described in Example 8-1, except that the thus obtained lysate was used, and NF-κB activity was also measured in the same manner as described in Example 8-1 (FIG. 9B). As control cells, H1299 cells treated with scrambled siRNA alone were used.
The thus obtained cells were lysed to obtain a cell lysate. The expression levels of IκB, c-Myc and Noxa were measured by Western blot analysis in the same manner as described in Example 8-1, except that the cell lysate was used. Also, NF-κB activity was measured by a reporter gene assay (FIG. 9C). […]

A549 cells = assay: Apoptosis by FACS analysis (annexin V / propidium iodide) in A549 cells; details: 0.1 μg/ml doxorubicin or 5 ng/ml vinblastine, 48 hours
Protocol: (§1) Human NSCLC cell lines (A549 and H460) were purchased from the ATCC and cultured in RPMI-1640 medium containing 10% FBS, 50 μg/ml streptomycin, and 50 units/ml penicillin. The cultured cells were irradiated using a ^137Cs-ray source (Atomic Energy of Canada, Ltd., Canada) at a dose rate of 3.81 Gy/min and were treated with 0.1 μg/ml doxorubicin or 5 ng/ml vinblastine. The treated cells were treated with trypsin, washed with PBS, stained with annexin V and propidium iodide, and then analyzed by FACS using a flow cytometer to measure apoptosis (FIG. 1A).
In addition, A549 cells were transfected with 100 nM scrambled siRNA or HRP-3 siRNA and cultured for 2 days. Then, changes in the morphology of the cells were observed under an optical microscope, and the death rate of the cells was measured by FACS analysis (FIG. 2D). Also, the levels of two apoptotic markers (cleaved PARP and active caspase-3) were determined by Western blotting (FIG. 2E).
In order to examine this correlation, the effect of HRP-3 in the A549 cells treated with radiation or the drug was analyzed. Specifically, A549 cells were transfected with 100 nM scrambled siRNA or HRP-3 siRNA, and then treated with 10 Gy radiation, 0.1 μg/ml doxorubicin or 5 ng/ml vinblastine and cultured. The death rate of the cultured cells was determined by FACS analysis (FIG. 3B).

H460 cells = assay: Apoptosis by FACS analysis in H460 cells; details: 0.1 μg/ml doxorubicin or 5 ng/ml vinblastine, 48 hours
Protocol: as §1
(§2) Specifically, while each type of H460 cells and H1299 cells were inoculated into a culture dish at a density of 3.5×10^5 cells/cm^2 and cultured in RPMI-1640 medium, each type of cell was radiated with 0 and 10 Gy of ^137Cs-rays, or the cell culture was treated with 0 and 0.1 μg/ml of doxorubicin or 0 and 5 ng/ml of vinblastine (Sigma, St. Louis, Mo., USA) and cultured. Next, the death rate of the cells was determined by FACS analysis according to a known method (M. J. Kim, et al., Cancer Lett, 339:15-24, 2013) (FIG. 7A).

H1299 cells = assay: Apoptosis by FACS analysis in H1299 cells; details: 0.1 μg/ml doxorubicin or 5 ng/ml vinblastine, 48 hours
Protocol: as §2
The inhibition of HRP-3 expression in H1299 cells was performed according to the method in Example 6-2, and the H1299 cells, which were inhibited of HRP-3 expression, were subjected to anticancer treatment (radiation, doxorubicin treatment or vinblastine treatment), and their apoptotic rate was measured (FIG. 7D).
The morphological change and apoptotic rate of H1299 cells were measured in the same manner as described in Example 6-4, except that radiation alone was performed as anticancer treatment (FIG. 8A).

HRP-3 = HRP-3 protein level after radiation or drug treatment in H1299 cells (Western blot); details: 0.1 μg/ml doxorubicin or 5 ng/ml vinblastine
Protocol: While H1299 cells were cultured in RPMI-1640 medium, the cells were radiated with 10 Gy of ^137Cs-rays, or the cell culture was treated with 0.1 μg/ml doxorubicin or 5 ng/ml vinblastine, and the change in the expression level of HRP-3 as a function of time for a culture time of 48 hours was analyzed by Western blotting or immunofluorescence staining (FIGS. 6D and 6E).

NF-κB = NF-κB reporter gene assay (pNF-κB-luc) in H1299 cells; details: siHRP-3-treated H1299 cells, 2 μM BAY 11-7082, 48 hours
Protocol: In addition, the activity of NF-κB in the scrambled siRNA- or siHRP-3-treated H1299 cells was measured by a reporter gene assay using Dual-Reporter™. Specifically, H1299 cells were transfected with 0.5 μg plasmid DNA (pNF-κB-luc; Stratagene, Cambridge, UK) in Dual-Reporter™, and then the luciferase activity in the cells was measured using a luminometer, and the activity of NF-κB was measured at various protein concentrations (FIG. 9A; right).

Structure (SMILES): CC(=O)N[C@@H](CS)C(=O)O [NAC, N-acetyl cysteine]
- effect on ROS generation induced by inhibition of HRP-3 expression (ROS [1]): reduced; also recorded: inhibited
- induction of cleaved PARP by HRP-3 deletion [2]: significantly decreased
- p53 and PUMA levels [2]: dramatically decreased
- ROS production after inhibition of HRP-3 expression and radiation (ROS [3]): decreased to that of control cells
- IκB, c-Myc and Noxa expression changes due to inhibition of HRP-3 expression (IκB, c-Myc, Noxa; 3 mM NAC, 48 hours): levels similar to the control cells

Structure (SMILES): COc1cccc2c1C(=O)c1c(O)c3c(c(O)c1C2=O)C[C@@](O)(C(=O)CO)C[C@@H]3O[C@H]1C[C@H](N)[C@H](O)[C@H](C)O1 [doxorubicin]
- resistance of A549 cells compared to H460 cells (apoptosis) (A549 cells): higher levels of resistance
- apoptotic rate (H460 cells): about 39%
- apoptotic rate (H1299 cells): about 23%
- time after treatment at which level of HRP-3 peaked (HRP-3): 12 h

Structure (SMILES): CC[C@]1(O)C[C@@H]2CN(CCc3c([nH]c4ccccc34)[C@@](C(=O)OC)(c3cc4c(cc3OC)N(C)[C@H]3[C@@](O)(C(=O)OC)[C@H](OC(C)=O)[C@]5(CC)C=CCN6CC[C@]43[C@@H]65)C2)C1 [vinblastine]
- resistance of A549 cells compared to H460 cells (apoptosis) (A549 cells): higher levels of resistance
- apoptotic rate (H460 cells): about 43%
- apoptotic rate (H1299 cells): about 26%
- time after treatment at which level of HRP-3 peaked (HRP-3): 12 h

Structure (SMILES): Cc1ccc(S(=O)(=O)/C=C/C#N)cc1 [BAY 11-7082]
- IκB, c-Myc and Noxa expression changes due to inhibition of HRP-3 expression (IκB, c-Myc, Noxa; 2 μM BAY 11-7082, 48 hours): levels similar to the control cells
- increase in NF-κB activity due to inhibition of HRP-3 expression (NF-κB): levels similar to the control cells
